Reference: patent US10093673B2, “Tetracyclic pyridone compounds as antivirals” (Novartis AG, priority 2016, dated 2018)
Values after ≈ are worked out from the molar mass of the structure shown.

Tests used:
[1] = High throughput solubility measurement in PBS; format: physicochemical; details: Cl-free PBS, aqueous buffer, thermodynamic from solid; PBS (phosphate-buffered saline), pH 6.8, 24 hours at room temperature
Source text: The following table provides data for solubility of compounds of the invention in PBS (phosphate-buffered saline), using a standard solubility screening method.

[2] = target: Nav1.5 (Homo sapiens (Human), UniProt Q14524); assay: Inhibition of cardiac sodium ion channel Nav1.5; format: biochemical
[3] = test system: HBsAg secretion; assay: HBsAg assay (ELISA of secreted HBsAg, HepG2-Clone42 cells); format: cell-based, HBV; details: Hepatitis B virus, read-out: HBsAg EC50, HepG2-Clone42 cells, HBsAg secretion reduced 50% vs DMSO control
Procedure: HepG2-Clone42, a Tet-inducible HBV-expressing cell line with a stably integrated 1.3mer copy of the HBV ayw strain, was generated based on the Tet-inducible HepAD38 cell line with slight modifications. Ladner S K, et al., Antimicrobial Agents and Chemotherapy. 41(8):1715-1720 (1997). HepG2-Clone42 cells were cultured in DMEM/F-12+Glutamax™ (Life Technologies, Carlsbad, Calif., USA), supplemented with 10% fetal bovine serum (Life Technologies), G-418 (Corning, Manassas, Va., USA) at a final concentration of 0.5 mg/mL, and 5 μg/mL Doxycycline (Sigma, St. Louis, Mo., USA) and maintained in 5% CO2 at 37° C.
HepG2-Clone42 cells were seeded in into black clear-bottom 96-well plates at a concentration of 6.0×10^4 cells/well. 24 hours post-seeding, the cells were treated with 200 μl/well of media containing five-fold serial dilutions of compounds in DMSO. DMSO alone was used as the no drug control. The final DMSO concentration in all wells was 0.5%.
The HBsAg ELISA kit (Alpha Diagnostic International, San Antonio, Tex., USE, Catalog #4110) was used to determine the level (semi-quantitative) of secreted HBV sAg.
The HBSAg ELISA assay was performed following the manufacturer's protocol as described.
Step 1. Pipet 100 μL each of compound or DMSO treated samples into HBsAg ELISA plates. Seal plates and incubate at room temp for 60 minutes.
Step 2. Aspirate samples and wash three times with Wash Buffer. Dispense 100μ of antibody-HRP conjugate to each well. Incubate at room temp for 30 minutes.
Step 3. Aspirate samples and wash three times with Wash Buffer. Add 100 μL of TMB Substrate to all wells and incubate 15 minutes at room temp.
Step 4. Dispense 100 μL of Stop Solution to each well. Measure absorbance of ELISA plate at 450 nm.
EC50 values were determined as follows: • 1. Determine the percent of HBsAg secretion inhibition. Calculate the percent inhibition on of HBsAg secretion inhibition using the following equation: 100×(XC−MB)/(MD−MB) • where XC is the absorbance signal from compound-treated well; MB is average absorbance signal (background signal) for column 12 (no cells+HBsAg ELISA sample buffer) and MD is average absorbance signal from DMSO-treated wells. Then calculate EC50 values by non-linear regression using a four parameter curve logistic equation. The curve fit model employed is XLFit Dose Response One Site Model 204: y=(A+((B−A)/(1+(10^((C−x)*D))))) where A is the minimum y value, B is the maximum y value, C is the log EC50 value, and D is the slope factor. High Throughput Solubility Measurement • 1. Transfer 20 ul of 10 mM DMSO stock solution into a 96 deep well plate labeled as […] and 5 ul to another plate labeled as compound standard plate. • 2. Place the buffer plate in a Multi-Tainer MT-4 container (FTS Systems). Freeze dry overnight to remove DMSO. • 3. Add 100 ul of Cl-free PBS (pH 6.8) to the dried compound in the buffer plate and 95 ul of DMSO to the standard plate. • 4. The buffer plate is be sonicated in a water bath for 10 min. • 5. The two plates are then placed onto the VWR orbital shaker to equilibrate for 24 hours at room temperature. • 6. The buffer plate is centrifuged at 4000 rpm for 30 min. • 7. Transfer 10 ul aliquots of supernatant from the buffer plate to a sample plate and dilute 5 fold. • 8. Inject both compound standard and sample into the UPLC/UV/CLND/MS to generate multi detector qualitative and quantitive analytical data. • 9. Data was processed with Xcalibur. CLND equimolar response was used for measuring compound concentration of DMSO solution. UV270 nm or MS relative ratio was used for solubility determination.

[4] = Pharmacokinetics in rat (iv and PO); format: in vivo
[5] = Pharmacokinetics in dog (iv and PO); format: in vivo
[6] = Pharmacokinetics in mice (iv and PO); format: in vivo

With COCCCOc1cc2c(cc1OC)-c1cc(=O)c(C(=O)O)cn1[C@H]1[C@@H]2OCC1(C)C [Compound 4.1, (3aR,12bR)-10-methoxy-11-(3-methoxypropoxy)-3,3-dimethyl-7-oxo-3,3a,7,12b-tetrahydro-2H-furo[3,2-c]pyrido[2,1-a]isoquinoline-6-carboxylic acid] the solubility at 24 h [1] was 1600 µM (≈ 687 µg/mL), the EC50 [2] was > 500000 nM and the EC50 [3] was 0.3 nM. For the same compound, the T1/2term. [4] was 1.2 h, the Cmax ([4]; in vivo, PO 2.0 mg/kg) was 2600 nM and the Tmax ([4]; in vivo, PO 2.0 mg/kg) was 2 h. For the same compound, the AUC ([4]; in vivo, PO 2.0 mg/kg, read-out: AUC PO) was 10.2 µM·h, the clearance ([4]; in vivo, iv 1.0 mg/kg) was 4.9 mL/min/kg and the bioavailability ([4]; in vivo, iv 1.0 mg/kg, PO 2.0 mg/kg, read-out: Oral BA (% F)) was 65%. It also gave an AUC ([4]; in vivo, iv 1.0 mg/kg, read-out: AUC iv) of 8 µM·h, a Vd ([4]; in vivo, iv 1.0 mg/kg, read-out: Vss) of 0.75 L/kg and a T1/2term. [5] of 12.3 h. The Cmax ([5]; in vivo, PO 1.0 mg/kg) was 3300 nM, the Tmax ([5]; in vivo, PO 1.0 mg/kg) was 0.8 h and the AUC ([5]; in vivo, PO 1.0 mg/kg, read-out: AUC PO) was 12.8 µM·h. For the same compound, the clearance ([5]; in vivo, iv 0.5 mg/kg) was 2.7 mL/min/kg, the bioavailability ([5]; in vivo, iv 0.5 mg/kg, PO 1.0 mg/kg, read-out: Oral BA (% F)) was 94% and the AUC ([5]; in vivo, iv 0.5 mg/kg, read-out: AUC iv) was 6.2 µM·h. It also gave a Vd ([5]; in vivo, iv 0.5 mg/kg, read-out: Vss) of 1.7 L/kg, a T1/2term. [6] of 1.8 h and a Cmax ([6]; mouse, in vivo, PO 2.0 mg/kg) of 1900 nM. For the same compound, the Tmax ([6]; mouse, in vivo, PO 2.0 mg/kg) was 1 h, the AUC ([6]; mouse, in vivo, PO 2.0 mg/kg, read-out: AUC PO) was 7.2 µM·h and the clearance ([6]; mouse, in vivo, iv 1.0 mg/kg) was 12.7 mL/min/kg. It also gave a bioavailability ([6]; mouse, in vivo, iv 1.0 mg/kg, PO 2.0 mg/kg, read-out: Oral BA (% F)) of 100%, an AUC ([6]; mouse, in vivo, iv 1.0 mg/kg, read-out: AUC iv) of 2.9 µM·h and a Vd ([6]; mouse, in vivo, iv 1.0 mg/kg, read-out: Vss) of 1.5 L/kg.
